System: MRC5
Assay: Cytotoxicity tests were performed on a human diploid embryonic lung cell line (MRC5) using the colorimetric MTT assay
Type: functional, cell-based

Question: For `CCN(CC)CCCC(C)Nc1ccnc2cc(Cl)ccc12` (stereo unspecified) [CHLOROQUINE], which IC50 is on record?
Answer: 50 µM

System: Plasmodium falciparum
Assay: Growth inhibition of Plasmodium falciparum at 10 nM
Type: functional

Question: `Cc1ccc(S(=O)(=O)NCCCN2CCN(CCCNc3ccnc4cc(Cl)ccc34)CC2)cc1` was tested. Which inhibition at 0.01 µM did it give?
Answer: 54%

Question: For `O=S(=O)(Cc1ccccc1)NCCCN1CCN(CCCNc2ccnc3cc(Cl)ccc23)CC1`, which inhibition at 0.01 µM is on record?
Answer: 4%

Question: For `Cc1ccc([N+](=O)[O-])cc1S(=O)(=O)NCCCN1CCN(CCCNc2ccnc3cc(Cl)ccc23)CC1`, which inhibition at 0.01 µM is on record?
Answer: 56%

Question: For `O=S(=O)(NCCCN1CCN(CCCNc2ccnc3cc(Cl)ccc23)CC1)c1ccc(Cl)cc1`, which inhibition at 0.01 µM is on record?
Answer: 26%

Question: With `O=[N+]([O-])c1ccccc1S(=O)(=O)NCCCN1CCN(CCCNc2ccnc3cc(Cl)ccc23)CC1` as the compound, how does the inhibition at 0.01 µM read?
Answer: 0%

Question: How did the inhibition at 0.01 µM turn out when `CC(=O)c1cccc(S(=O)(=O)NCCCN2CCN(CCCNc3ccnc4cc(Cl)ccc34)CC2)c1` was run?
Answer: 22%

Question: For `O=[N+]([O-])c1cccc(S(=O)(=O)NCCCN2CCN(CCCNc3ccnc4cc(Cl)ccc34)CC2)c1`, which inhibition at 0.01 µM is on record?
Answer: 48%

Question: Which inhibition at 0.01 µM does the source give for `O=S(=O)(NCCCN1CCN(CCCNc2ccnc3cc(Cl)ccc23)CC1)c1cc(C(F)(F)F)ccc1Cl` here?
Answer: 60%

Question: Which inhibition at 0.01 µM does the source give for `CCS(=O)(=O)NCCCN1CCN(CCCNc2ccnc3cc(Cl)ccc23)CC1` here?
Answer: 1%

Question: `COc1ccc(Br)cc1S(=O)(=O)NCCCN1CCN(CCCNc2ccnc3cc(Cl)ccc23)CC1` was tested. Which inhibition at 0.01 µM did it give?
Answer: 64%

Question: With `O=S(=O)(NCCCN1CCN(CCCNc2ccnc3cc(Cl)ccc23)CC1)c1ccc(F)cc1` as the compound, how does the inhibition at 0.01 µM read?
Answer: 20%

Question: With `O=S(=O)(/C=C/c1ccccc1)NCCCN1CCN(CCCNc2ccnc3cc(Cl)ccc23)CC1` as the compound, how does the inhibition at 0.01 µM read?
Answer: 0%

Question: With `O=S(=O)(NCCCN1CCN(CCCNc2ccnc3cc(Cl)ccc23)CC1)c1ccccc1F` as the compound, how does the inhibition at 0.01 µM read?
Answer: 11%

Question: How did the inhibition at 0.01 µM turn out when `CC(C)S(=O)(=O)NCCCN1CCN(CCCNc2ccnc3cc(Cl)ccc23)CC1` was run?
Answer: 25%

System: Plasmodium falciparum
Assay: Antimalarial activity against chloroquine-resistant Plasmodium falciparum FcB1
Type: functional, organism-based

Question: For `Clc1ccc2c(NCCCN3CCN(CCCNc4ccnc5cc(Cl)ccc45)CC3)ccnc2c1`, which IC50 is on record?
Answer: 0.112 µM

Reference: ChEMBL document CHEMBL1135560, “Parallel synthesis and anti-malarial activity of a sulfonamide library” (Bioorg Med Chem Lett, 2002)
